Assay results taken from patent US12384788B2, “1,4-dihydrobenzo[d]pyrazolo[3,4-f][1,3]diazepine derivatives and related compounds as LRRK2, NUAK1 and/or TYK2 kinase modulators for the treatment of e.g. autoimmune disease” (Origenis GMBH, priority 2019, dated 2025).

Molecular target: T1, wt human TYK2, catalytic site (Homo sapiens, UniProt P29597)
T1 construct: wt human TYK2, catalytic site; purchased SignalChem
T1 sequence (P29597 897-1176 limits assumed): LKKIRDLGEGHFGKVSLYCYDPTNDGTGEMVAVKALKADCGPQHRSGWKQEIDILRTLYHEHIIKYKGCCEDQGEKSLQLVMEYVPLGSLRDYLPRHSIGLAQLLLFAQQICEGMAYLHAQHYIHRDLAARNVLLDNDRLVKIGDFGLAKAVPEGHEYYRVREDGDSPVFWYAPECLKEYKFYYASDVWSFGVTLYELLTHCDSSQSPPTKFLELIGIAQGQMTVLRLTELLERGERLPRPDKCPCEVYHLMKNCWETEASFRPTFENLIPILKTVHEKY
Experiment: HTRF KinEASE assay, TYK2
Type: biochemical
Conditions: 1 μM ATP; read-out: IC50, inhibitory activity toward TYK2
Procedure: Basic protocol for HTRF KinEASE assay (Cisbio/FRA) inhibitor studies involved two steps:
Enzymatic step: Addition of 4 μl of test compound in corresponding DMSO dilutions, 4 μl of kinase/substrate mixture, 2 μl of ATP into 384 well small volume plates. Incubation for at least 30 minutes at room temperature.
Detection step: Addition of 5 μl antibody and 5 μl streptavidin-XL665, read plate after 60 minutes. Data analysis of emission ratios according to KinEASE assay protocol.
Kinase and assay components were adjusted to final concentrations according to the kit protocol. For TYK2: 2 nM wt human TYK2, catalytic site (SignalChem/CAN), 1 μM HTRF KinEASE-TK Substrate-biotin, 1 μM ATP in 1× Kinase Buffer

- IC50: 10 to 100 nM
SMILES: Fc1cccc(Cl)c1C1=Nc2cn[nH]c2-c2[nH]ncc2N1 [Compound 89, 5-(2-chloro-6-fluorophenyl)-4,9-dihydro-1H-dipyrazolo[4,3-d:3′,4′-f][1,3]diazepine]
